Assay results as given in PMC5053523, “In Vitro Antibacterial Activity of Rhodanine Derivatives against Pathogenic Clinical Isolates” (PLoS ONE, 2016).
Where two headings read alike, the source gives them in different places.

Columns and labels:
[1] = tested on: vancomycin resistant enterococci (VRE); experiment: Broth microdilution MIC50/MIC90, VRE panel; format: cell-based; settings: Enterococcus, 10 VRE strains
B. licheniformis = experiment: Broth microdilution MIC/MBC, B. licheniformis; format: cell-based; settings: Bacillus licheniformis; for MBC: read-out: MBC; for MIC: read-out: MIC
MRSA USA300 = experiment: MIC against MRSA USA300 with and without 4% human serum albumin; format: cell-based, Staphylococcus aureus; settings: Staphylococcus aureus, read-out: MIC against MRSA USA300
In short: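 MIC measured in tryptic soy broth spiked with 4% HSA and without it, using CLSI broth microdilution on MRSA USA300. Value reported is the lowest concentration preventing bacterial growth.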

Salmonella Typhimurium = experiment: MIC with/without sub-MIC colistin, Salmonella Typhimurium; format: cell-based
Procedure: (§1) The MIC of the rhodanines and control antibiotics, in the presence of a sub-inhibitory concentration of colistin or polymixin B nonapeptide (PMBN), against Gram-negative bacteria was evaluated as described before. The antibacterial activity of the rhodanines was further investigated against E. coli SM1411Δ acrAB, a strain that is deficient in the multidrug-resistant AcrAB efflux pump, as described before.

B. cereus = experiment: Broth microdilution MIC/MBC, B. cereus; format: cell-based; settings: Bacillus cereus; for MBC: read-out: MBC; for MIC: read-out: MIC
From the text: The broth microdilution technique was used, followed by subculturing on agar plates that were rhodanine—free.

Klebsiella pneumoniae [2] = experiment: MIC with/without sub-MIC colistin, Klebsiella pneumoniae; format: cell-based
Procedure: as §1

Bacillus anthracis = experiment: microbe, parasite or virus in culture; format: cell-based
P. aeruginosa = experiment: Broth microdilution MIC, P. aeruginosa; format: cell-based; settings: Pseudomonas aeruginosa
[3] = tested on: vancomycin resistant enterococci (VRE) E. faecium; experiment: Broth microdilution MIC/MBC, VRE E. faecium; format: cell-based; settings: for MIC: read-out: MIC
Klebsiella pneumoniae [4] = experiment: MIC with/without PMBN, Klebsiella pneumoniae; format: cell-based
Procedure: as §1

Acinetobacter baumannii [5] = experiment: Broth microdilution MIC, Acinetobacter baumannii; format: cell-based
[6] = tested on: vancomycin resistant enterococci (VRE) E. faecalis; experiment: Broth microdilution MIC/MBC, VRE E. faecalis; format: cell-based; settings: for MIC: read-out: MIC
Acinetobacter baumannii [7] = experiment: MIC with/without PMBN, Acinetobacter baumannii; format: cell-based
Procedure: as §1

[8] = NCIB9375, B. licheniformis Gibson 46 (NCIB 9375) NR-2494
[9] = NRS712, B. licheniformis NRS 712 NR-2499
[10] = NRS201, B. cereus NRS 201 NR-2488
[11] = E. faecium HM 968 Strain ERV102
[12] = E. faecium NR31914 Strain E0120
[13] = E. faecium Patient #1–1 NR-31903
[14] = E. faecalis NR31972 Strain SF 28073

O=C(O)[C@H](Cc1ccccc1)N1C(=O)/C(=C/c2cccc(Cc3ccc(Cl)c(Cl)c3)c2)SC1=S [Rh 3]
64 µM: MBC ([3]; E. faecium E417 HM-965) | MBC [3, 11] | MBC [3, 12] | MBC [3, 13] | MBC [6, 14]
> 128 µM: MIC (Salmonella Typhimurium; Salmonella enterica, ATCC 700720 / TYPHIMURIUM) | MIC (Klebsiella pneumoniae [2]; Klebsiella pneumoniae, BAA2146) | MIC (P. aeruginosa; ATCC9721) | MIC (P. aeruginosa; ATCC15442) | MIC (Klebsiella pneumoniae [4]; Klebsiella pneumoniae, BAA1706) | MIC (Klebsiella pneumoniae [4]; Klebsiella pneumoniae, BAA2146) | MIC (Acinetobacter baumannii [5]; ATCC13345) | MIC (Acinetobacter baumannii [5]; ATCC17786) | MIC (Acinetobacter baumannii [7]; Acinetobacter baumannii, ATCCBAA747) | MIC (Acinetobacter baumannii [7]; Acinetobacter baumannii, ATCCBAA19606)
8 µM: MIC90 ([1]; VRE, read-out: MIC 90) | MIC (MRSA USA300; Media TSB) | MBC (B. cereus; B. cereus VD148 NR-22150) | MIC (B. cereus; B. cereus VD148 NR-22150) | MIC ([3]; E. faecium E1071 NR-28978) | MIC [3, 12] | MBC ([6]; E. faecalis ERV103 HM-934) | MBC ([6]; E. faecalis S613 HM-334) | MBC ([6]; E. faecalis TX0104 HM-201)
4 µM: MIC50 ([1]; read-out: MIC 50) | MBC (B. licheniformis; [9]) | MIC (B. licheniformis; [9]) | MBC (B. cereus; B. cereus BAG1O-2 NR-28582) | MIC (B. cereus; B. cereus BAG1O-2 NR-28582) | MBC (B. cereus; B. cereus BAG1X2-1 NR-28578) | MIC (B. cereus; B. cereus BAG1X2-1 NR-28578) | MBC (B. cereus; B. cereus G9241 NR-9564) | MIC (B. cereus; B. cereus G9241 NR-9564) | MBC (B. cereus; B. cereus VD014 NR-22141) | MIC (B. cereus; B. cereus VD014 NR-22141) | MBC (B. cereus; B. cereus VD115 NR-22148) | MIC (B. cereus; B. cereus VD115 NR-22148) | MBC (B. cereus; [10]) | MIC (B. cereus; [10]) | MIC ([3]; E. faecium E417 HM-965) | MIC [3, 11] | MIC [3, 13] | MIC ([6]; E. faecalis ERV103 HM-934) | MIC [6, 14] | MBC ([6]; E. faecalis R712 HM-335) | MIC ([6]; E. faecalis R712 HM-335) | MIC ([6]; E. faecalis S613 HM-334) | MIC ([6]; E. faecalis TX0104 HM-201)
2 µM: MBC (B. licheniformis; [8]) | MIC (B. licheniformis; [8]) | MBC (B. cereus; B. cereus BAG1X1-1 NR-28575) | MIC (B. cereus; B. cereus BAG1X1-1 NR-28575) | MBC (Bacillus anthracis; Bacillus anthracis AMES35) | MIC (Bacillus anthracis; Bacillus anthracis AMES35) | MBC (Bacillus anthracis; Bacillus anthracis UM23) | MIC (Bacillus anthracis; Bacillus anthracis UM23) | MBC (Bacillus anthracis; Bacillus anthracis Weybridge) | MIC (Bacillus anthracis; Bacillus anthracis Weybridge)
> 64 µM: MIC (MRSA USA300; 24 h, Media TSB + 4% HSA) | MBC ([3]; E. faecium E1071 NR-28978)
>64 µM: MIC (Salmonella Typhimurium; Salmonella Typhimurium ATCC 700720, colistin (+) […], read-out: MIC) | MIC (Klebsiella pneumoniae [2]; Klebsiella pneumoniae ATCC BAA 2146, colistin (+) […]) | MIC (Klebsiella pneumoniae [4]; Klebsiella pneumoniae ATCC BAA 1706, PMBN (+) 4 μg/mL) | MIC (Klebsiella pneumoniae [4]; Klebsiella pneumoniae ATCC BAA 2146, PMBN (+) 4 μg/mL) | MIC (Acinetobacter baumannii [7]; Acinetobacter baumannii ATCC BAA747, PMBN (+) 4 μg/mL, read-out: MIC) | MIC (Acinetobacter baumannii [7]; Acinetobacter baumannii ATCC BAA19606, PMBN (+) 4 μg/mL, read-out: MIC)
